Results: ChEMBL document CHEMBL5038629, “Light-Triggered Fluorescence Self-Reporting Nitric Oxide Release from Coumarin Analogues for Accelerating Wound Healing and Synergistic Antimicrobial Applications” (J Med Chem, 2022)

How the values were obtained:
Staphylococcus aureus [1] = assay: Inhibition of biofilm formation in methicillin-resistant Staphylococcus aureus assessed as decrease in biofilm mass at 10 uM upon exposure to UV light irradiation and measured after 48 hrs by dilution plate coating method; format: functional; settings: light or radiation study
Staphylococcus aureus [2] = assay: Inhibition of biofilm formation in methicillin-resistant Staphylococcus aureus assessed as biofilm dispersal effect at 10 uM incubated for 5 hrs followed by exposure to UV light irradiation for 1 min by crystal violet staining based analysis; format: functional; design: scale not given: the % may be the effect or the level left; settings: time 301 min, 5.017 h

Compound: C[C@H]1COc2c(N3CCN(C)CC3)c(F)cc3c(=O)c(C(=O)O)cn1c23.C[C@H]1COc2c(N3CCN(C)CC3)c(F)cc3c(=O)c(C(=O)O)cn1c23.O [LEVOFLOXACIN]
- inhibition at 10 µM (Staphylococcus aureus [1]): 19%
- Activity (Staphylococcus aureus [2]): 15%
